Measurements published in patent US20230365577A1, “Photodynamic Therapy and Diagnosis” (RMW CHO Group Limited, priority 2020, published 2023).
Where two headings read alike, the source gives them in different places.

Experiments:
[1] = tested on: 4T1 murine breast cancer cells; assay: Tumour localisation and retention, model 1 (subcutaneous 4T1 tumours); format: in vivo, Balb/C wild type mice
Description: Model 1 used Balb/C wild type mice implanted subcutaneously with 10^4×4T1 murine breast cancer cells. When tumours reached a palpable size (˜3-6 mm diameter) mice received compound 6 by either oral gavage (ORAL: 2.5 mg/kg), intravenous injection (IV: 1.0 mg/kg), or intratumoral injection (IT: 1.0 mg/kg in […]). To establish compound 6 localisation, mice were imaged using an IVIS Lumina III In Vivo Imaging System (Perkin Elmer) to detect fluorescence at 660 nm when illuminated under blue (400-460 nm) light.
In a second experiment, the localisation of compound 6 at 24 hours post-administration was compared to that of Talaporfin sodium and 5-Aminolevulinic acid (5-ALA), with all compounds injected at 0.1 mg/kg IT. Fluorescence measurements were made using an IVIS Lumina III instrument (as above).

[2] = tested on: SKOV3 ovarian cancer cells; assay: Phototoxicity in SKOV3 cells (652 nm laser, AlamarBlue viability); format: cell-based, Human; conditions: for IC90: Homo sapiens, SK-OV-3, light or radiation study
How it was run: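 SKOV3 cells were loaded for 24 h with photosensitizer (0–10 μM in DMSO) in medium containing 10% Kollidon-12. After a media change they were irradiated at 652 nm, 50 mW/cm^2 for 5 min (15 J/cm^2), cultured a further 24 h, and viability was read by AlamarBlue in quadruplicate. Phototoxicity IC90 and dark-toxicity IC10 came from variable-slope normalized dose–response fits.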

DLD-1 = assay: Cytotoxicity, pan-cancer panel; format: cell-based; conditions: DLD-1, colorectal adenocarcinoma
Description: (§1) To test for inherent cytotoxicity (i.e. “dark toxicity”) of the phyllochlorin analogue the culture media was replaced after 24 hours with fresh media containing 10% (v/v) AlamarBlue Cell Viability Reagent (ThermoFisher) and cells incubated at 37° C. for 6 hours. Untreated cells were used as a control. Fluorescence (Ex 555 nm/Em 596 nm) was measured using a Cytation 3 Multimode Plate Reader (Biotek), and cytotoxicity assessed according to the % viable cells remaining. All measurements were made in quadruplicate.
(§2) The activity of phyllochlorin analogues against multiple cancer cell types was assessed as above, using compounds 3 and 6 as examples.

HEK293 = assay: Cytotoxicity, pan-cancer panel; format: cell-based; conditions: HEK293, embryonic kidney
Description: as §1, §2

HH = assay: Cytotoxicity, pan-cancer panel; format: cell-based; conditions: T cell lymphoma
Description: as §1, §2

MDA-MB-468 = assay: Cytotoxicity, pan-cancer panel; format: cell-based; conditions: MDA-MB-468, breast adenocarcinoma (triple negative)
Description: as §1, §2

A549 = assay: Cytotoxicity, pan-cancer panel; format: cell-based; conditions: A549, lung adenocarcinoma
Description: as §1, §2

LP9 = assay: Cytotoxicity, pan-cancer panel; format: cell-based; conditions: LP9, immortalised mesothelial cells
Description: as §1, §2

B16F10 = assay: Cytotoxicity, pan-cancer panel; format: cell-based; conditions: B16F10, melanoma
Description: as §1, §2

In the case of `C=Cc1c(C)c2cc3nc(c(C)c4cc(C)c(cc5nc(cc1[nH]2)C(C)=C5CC)[nH]4)[C@@H](CCC(=O)N(C)CCCS[C@@H]1O[C@H](CO)[C@@H](O)[C@H](O)[C@H]1O)[C@@H]3C` [Compound 6, 3-((7S,8S)-18-ethyl-2,5,8,12,17-pentamethyl-13-vinyl-7H,8H-porphyrin-7-yl)-N-methyl-N-(3-(((2S,3R,4S,5S,6R)-3,4,5-trihydroxy-6-(hydroxymethyl)tetrahydro-2H-pyran-2-yl)thio)propyl)propanamide], the “Tumour localisation at 24 hours post-administration” value ([1]; 0.1 mg/kg IT, primary breast tumours, IVIS fluorescence) is reported as “localised strongly to tumour”, the “Localisation and retention in tumour tissue” value ([1]; IT 1.0 mg/kg, model 1) is reported as “at least 48 hours” and the “Fluorescence retained in tumour” value ([1]; IV 1.0 mg/kg, model 1) is reported as “at least 4 hours”. The “Time of peak in tumour” value ([1]; IV 1.0 mg/kg, model 1) was 1 h, the “Tumour fluorescence at 24 hours post-injection” value ([1]; IV 1.0 mg/kg, model 1) was “undetectable” and the “Retention in tumour tissues following administration” value ([1]; in all cases (models 1 and 2, all routes)) was “at least 24 hours”. The “Clearance from healthy tissues” value ([1]; in all cases, dependent on the tissue type) was 4 to 16 h, the “Time of peak levels in tumour” value ([1]; oral gavage 2.5 mg/kg, model 1) was 4 h and the “Time remaining above background in tumour” value ([1]; oral gavage 2.5 mg/kg, model 1) was “at least 24 hours”. For the same compound, the IC90 ([2]; SKOV3, ovarian clear cell (Table 2), read-out: Phototoxicity IC90) was 0.19 µM, the IC90 ([2]; SKOV3, 24 h uptake, 652 nm laser 50 mW/cm2 5 mins (15 J/cm2), viability 24 h later, read-out: Cellular Toxicity: Phototoxicity IC90) was 0.06 µM and the IC90 ([2]; SKOV3, read-out: Phototoxicity apparent IC90) was < 0.1 µM. The “Fold increase in cellular phototoxicity compared to compound 2” value ([2]; SKOV3, IC90) was “approximately 4 fold”, the “Cytotoxicity IC10” value (DLD-1) was 9.20 µM and the “Cytotoxicity IC10” value (HEK293) was 8.16 µM. The “Cytotoxicity IC10” value (HH) was 10.25 µM, the “Cytotoxicity IC10” value (MDA-MB-468) was 13.25 µM and the “Cytotoxicity IC10” value (A549) was 29.52 µM. The “Cytotoxicity IC10” value (LP9) was 19.63 µM and the “Cytotoxicity IC10” value (B16F10) was 22.85 µM.
